ChEMBL document CHEMBL3867458, “Chiral Separation of Cytotoxic Flavan Derivatives from Daphne giraldii” (J Nat Prod, 2016)

Key:
[1] = Cytotoxicity activity against human MCF7 cells assessed as growth inhibition measured after 48 hrs by MTT assay; assay type: functional, cell-based; conditions: MCF7, 48 h
[2] = Cytotoxicity activity against human A549 cells assessed as growth inhibition measured after 48 hrs by MTT assay; assay type: functional, cell-based; conditions: A549, 48 h

CC(=O)O[C@H]1C(=O)[C@@]2(C)[C@H]([C@H](OC(=O)c3ccccc3)[C@]3(O)C[C@H](OC(=O)[C@H](O)[C@@H](NC(=O)c4ccccc4)c4ccccc4)C(C)=C1C3(C)C)[C@]1(OC(C)=O)CO[C@@H]1C[C@@H]2O [PACLITAXEL]
IC50 [1]: 60 nM
IC50 [2]: 30 nM
